Values joined by “and” are separate entries in the source; they are usually repeats but may differ in a detail not shown here. Identical values can stand only once. “Also recorded” adds a separate entry of the source.
Columns and labels:
[1] = test system: hippocampal sclerosis model mouse; experiment: Epileptic spikes in hippocampal sclerosis model mouse (intrahippocampal kainate); assay type: in vivo
Method: Preparation and measurement of hippocampal sclerosis model mouse (FIGS. 1 to 3): The hippocampal sclerosis model mouse was prepared according to a previous literature (Non-Patent Document 15). Six to seven-week-old ICR mice were used for the experiment. Mice were fully anesthetized with a mixture of ketamine (100 mg/kg) and xylazine (20 mg/kg) and then set on a brain stereotaxic apparatus. Using a micro glass electrode and a Hamilton syringe from above the hippocampus of the head, a trace amount of kainate (0.8 nmol, 40 nL) for inducing epilepsy was injected into the dorsal hippocampus (1.6 mm behind the bregma, 1.6 mm laterally from the centerline, 1.4 mm deep from the brain surface), and then a metal electrode (a diameter of 200 μm) for epileptic electroencephalography was embedded near the kainic acid injection site. In addition, a small plastic U-shaped frame for head fixation required for in vivo electrical measurements was also attached to the head. After 2 weeks or more from surgery, epileptic spikes in the hippocampus were measured. The head was fixed via the U-shaped frame. Epileptic spikes were amplified, then measured via a band-pass filter (0.5-30 Hz) and taken into a computer using an AD converter. After measurement of the baseline electroencephalogram for 30 minutes, stiripentol (300 mg/kg), isosafrole (100-300 mg/kg), sodium oxamate (250-500 mg/kg), or physiological saline was intraperitoneally administered, and then further recording was conducted for 1 hour. Sodium oxamate was dissolved in water, and stiripentol and isosafrole were dissolved in sodium carboxymethyl cellulose (1%) and administered intraperitoneally. In data analysis, high-amplitude epilepsy spikes with an amplitude of 0.5 mV or more were counted 30 minutes before and after administration, respectively, and the efficacy was evaluated by normalization using the number of epileptic spikes before administration. In the observation of morphological changes due to hippocampal sclerosis, the brain was sliced to 300 μm thickness, fixed with 10% formalin, and stained with 0.05% cresylviolet.
Medial temporal lobe epilepsy with hippocampal sclerosis is a typical refractory epilepsy in adults (epilepsy for which existing drugs are not effective). First, according to a previous literature (Non-Patent Document 15), a trace amount of kainic acid was injected to a hippocampus to prepare hippocampal sclerosis model mouse (FIG. 1A). […] This is the same finding as the already reported hippocampal sclerosis model mouse (Non-Patent Document 15), which is similar to the symptom observed in human hippocampal sclerosis (Non-Patent Document 16). When recording on the hippocampus, spontaneous high-amplitude epileptic spikes were observed (FIG. 1C; arrowhead). […]

human LDH-1 = human LDH-1 (Homo sapiens, UniProt P07195); experiment: Lactate dehydrogenase activity by NADH light absorption at 340 nm, LDH-1; assay type: biochemical; conditions: 500 μM
Method: (§1) Evaluation of inhibition of lactate dehydrogenase by isosafrole (FIG. 4): The activity of lactate dehydrogenase was measured by a versatile method based on light absorption of NADH. Lactate dehydrogenase is an enzyme that interconverts pyruvate and lactate. At that time, NADH and NAD are also interconverted. For lactate dehydrogenase activity from lactate to pyruvate, lactate (20 mM), NAD (200 μM) and lactate dehydrogenase were added and the reaction rate of NADH produced was measured. On the other hand, for the lactate dehydrogenase activity from pyruvate to lactate, pyruvate (1.0 mM), NADH (200 μM) and lactate dehydrogenase were added and the reaction rate of decreasing NADH was measured. Both reactions were carried out at 37° C. in 100 mM sodium phosphate buffer (pH7.3). The light absorption of NADH at 340 nm was measured using an absorptiometer at 30 second intervals for 3.5 minutes to determine the reaction rate. Two kinds of human lactate dehydrogenase (human LDH-1 and LDH-5) were examined as lactate dehydrogenase. The amount of lactate dehydrogenase was set so that the maximum rates of the two lactate dehydrogenases were approximately the same: 0.0033 units/ml of LDH-1 and 0.01 units/ml of LDH-5 for the activity from lactate to pyruvate; and 0.0017 units/ml of LDH-1 and 0.0033 units/ml of LDH-5 for the activity from pyruvate to lactate. […]

human LDH-5 [2] = biological target: T1, human LDH-5 (Homo sapiens, UniProt P00338); experiment: Lactate dehydrogenase activity by NADH light absorption at 340 nm, LDH-5; assay type: biochemical; conditions: 500 μM
Method: as §1

human LDH-5 [3] = biological target: T1, human LDH-5; experiment: Lactate dehydrogenase inhibition rate, diaphorase/INT formazan coloring reaction (492 nm); assay type: biochemical
Method: Identification of a lactate dehydrogenase inhibitor having isosafrole as a scaffold (FIGS. 5 to 7): Since NADH absorbs light in the ultraviolet region (340 nm) and many compounds absorb the wavelength, NADH is not suitable for screening using a compound library. Therefore, in order to evaluate the lactate dehydrogenase activity from pyruvate to lactate, pyruvate (100 μM), NADH (100 μM) and lactate dehydrogenase (0.015 U/mL of human LDH-5) were firstly added, then allowed to react in a 100 mM sodium phosphate buffer (pH7.3) at 37° C. for 60 minutes (LDH enzyme reaction, 200 μL/well). At this stage, the background absorbance at 492 nm was first measured with a plate reader (absorbance before coloring reaction). Next, in order to measure the amount of NADH remaining in the LDH enzyme reaction, 100 μL/well of a coloring solution in which diaphorase (25 U/mL) and INT (5 mM) were dissolved was added, and then allowed to react in a 100 mM sodium phosphate buffer (pH7.3) at 37° C. for 10 minutes (coloring reaction). Since INT changes to INT formazan by diaphorase in the presence of NADH and develops color, the absorbance at 492 nm of INT formazan was measured with a plate reader (absorbance after coloring reaction).
Calculation of the inhibition rate (% Inhibition) is as follows. ΔA when the above reaction was carried out under the condition that lactate dehydrogenase was present was taken as “0% control value”, and ΔA when the above reaction was carried out under the condition that lactate dehydrogenase was absent was taken as “100% control value”. […] Then, the same reaction as the 0% control was carried out in the presence of a compound having isosafrole as a scaffold, and resultant ΔA was defined as “ΔA in the presence of the compound”. […] Specifically, inhibition rate is calculated as follows: Inhibition rate (%)=100×(ΔA in the presence of the compound−0% control value)/(100% control value−0% control value). Compounds showing inhibition rate of 100% (±25%) were described in FIGS. 6 and 7 as lactate dehydrogenase inhibitor. […]

[4] = test system: pentylenetetrazole-induced acute epileptic seizures; conditions: rats, 300 mg/kg intraperitoneal; cited from earlier work
[5] = rats, 300 mg/kg intraperitoneal; cited from earlier work
[6] = 300 mg/kg intraperitoneal, high-amplitude spikes 30 min after vs before administration

human LDH-1, sequence (P07195 2-334 limits assumed): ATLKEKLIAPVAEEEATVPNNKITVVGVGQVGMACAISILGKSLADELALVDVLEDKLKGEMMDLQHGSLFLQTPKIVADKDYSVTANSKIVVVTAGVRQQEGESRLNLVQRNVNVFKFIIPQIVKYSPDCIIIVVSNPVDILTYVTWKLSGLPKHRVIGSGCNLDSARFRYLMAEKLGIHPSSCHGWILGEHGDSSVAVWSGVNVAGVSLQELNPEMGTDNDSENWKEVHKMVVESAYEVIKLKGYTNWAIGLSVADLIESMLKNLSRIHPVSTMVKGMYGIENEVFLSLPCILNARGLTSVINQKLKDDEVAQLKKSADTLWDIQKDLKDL

Compound	antiepileptic effect on epileptic spikes [1, 6]	antiepileptic effect on epileptic spikes ([1]; 200-300 mg/kg intraperitoneal)	effect on lactate dehydrogenase activity from lactate to pyruvate (human LDH-1; Lactate→Pyruvate)	effect on lactate dehydrogenase activity from pyruvate to lactate (human LDH-1; Pyruvate→Lactate)	effect on lactate dehydrogenase activity from lactate to pyruvate (human LDH-5 [2]; Lactate→Pyruvate)	effect on lactate dehydrogenase activity from pyruvate to lactate (human LDH-5 [2]; Pyruvate→Lactate)	inhibition of lactate dehydrogenase (LDH-5) (human LDH-5 [3]; 250 μM)	inhibition of lactate dehydrogenase (LDH-5) (human LDH-5 [3]; 500 μM)	inhibition of lactate dehydrogenase (LDH-5) (human LDH-5 [3]; 500 μM, listed as Isosafrole)	antiepileptic effect on epileptic spikes ([1]; 500 mg/kg intraperitoneal)	suppression of pentylenetetrazole-induced acute epileptic seizures [4]	plasma concentration [5]
C/C=C/c1ccc2c(c1)OCO2 [isosafrole, 5-(1-propenyl)-1,3-benzodioxole]	significantly suppressed; also recorded: remarkable inhibitory effect on epilepsy	remarkable antiepileptic effect	inhibitory effect	inhibitory effect was strong	inhibitory effect	inhibitory effect was strong	not	inhibited	inhibits	–	–	–
NC(=O)C(=O)[O-].[Na+] [sodium oxamate]	–	–	–	–	–	–	–	–	–	weak anti-epileptic effect	–	–
CC(C)(C)C(O)/C=C/c1ccc2c(c1)OCO2 (stereo not shown) [stiripentol, 4-dimethyl-1-[(3,4-methylenedioxy)-phenyl]-1-penten-3-ol]	scarcely inhibited; also recorded: little antiepileptic effect; also recorded: almost no inhibitory effect	–	–	–	–	–	–	–	–	–	suppressed	20-100 μg/ml and 85-427 μM

Source: patent US10350192B2, “Lactate dehydrogenase inhibitor and antiepileptic drug containing the same” (NATIONAL UNIVERSITY CORPORATION OKAYAMA UNIVERSITY, priority 2015, dated 2019)
